Data reported in ChEMBL document CHEMBL1909492, “Discovery of 1-arylcarbonyl-6,7-dimethoxyisoquinoline derivatives as glutamine fructose-6-phosphate amidotransferase (GFAT) inhibitors” (Bioorg Med Chem Lett, 2011).
≈ marks a conversion by molar mass, not a printed value. Calls of active or inactive are those of the source. The calls are words filed in the database; no cut-off is given here.

Columns and labels:
[1] = Inhibition of GFAT-beta expressed in COS cells using […] as substrate
[2] = Photo-degradation of compound in DMSO at 1 mM after 2 hrs by HPLC/UV spectrophotometric analysis; assay type: physicochemical; conditions: read-out: Activity
[3] = target: T1, Glutamine--fructose-6-phosphate aminotransferase [isomerizing] 1 (Homo sapiens, UniProt Q06210); test: Reversible inhibition of GFAT
T1 sequence (Q06210 whole entry): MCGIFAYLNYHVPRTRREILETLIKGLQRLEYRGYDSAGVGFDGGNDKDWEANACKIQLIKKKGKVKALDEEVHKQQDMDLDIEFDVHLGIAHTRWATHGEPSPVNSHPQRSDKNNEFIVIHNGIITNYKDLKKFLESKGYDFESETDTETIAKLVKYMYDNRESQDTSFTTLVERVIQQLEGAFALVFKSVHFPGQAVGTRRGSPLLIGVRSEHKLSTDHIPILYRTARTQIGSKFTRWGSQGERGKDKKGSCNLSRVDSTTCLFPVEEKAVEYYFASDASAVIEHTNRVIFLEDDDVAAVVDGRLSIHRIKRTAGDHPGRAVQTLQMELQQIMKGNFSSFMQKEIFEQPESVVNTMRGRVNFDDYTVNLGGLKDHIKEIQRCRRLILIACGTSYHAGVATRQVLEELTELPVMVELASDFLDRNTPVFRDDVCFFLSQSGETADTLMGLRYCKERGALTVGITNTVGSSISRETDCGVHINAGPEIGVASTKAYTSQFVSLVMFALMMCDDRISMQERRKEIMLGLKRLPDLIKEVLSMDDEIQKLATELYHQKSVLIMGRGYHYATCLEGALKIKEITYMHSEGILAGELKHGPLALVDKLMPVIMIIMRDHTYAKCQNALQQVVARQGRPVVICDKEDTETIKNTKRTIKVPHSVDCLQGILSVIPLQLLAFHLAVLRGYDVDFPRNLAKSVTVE

[4] = target: T1, Glutamine--fructose-6-phosphate aminotransferase [isomerizing] 1; test: Irreversible inhibition of GFAT
[5] = target: T1, Glutamine--fructose-6-phosphate aminotransferase [isomerizing] 1; test: Inhibition of GFAT using […] as substrate
[6] = Tmax in rat at 50 mg/kg, po; assay type: ADME, organism-based; design: dose 50 mg/kg, route oral; conditions: in vivo
[7] = Photo-degradation of compound in solid state over years by HPLC analysis; assay type: physicochemical
[8] = AUC in rat at 10 mg/kg, iv; assay type: ADME, organism-based; design: dose 10 mg/kg, route intravenous; conditions: plasma
[9] = Volume of distribution in rat at 10 mg/kg, iv; assay type: ADME, organism-based; design: dose 10 mg/kg, route intravenous; conditions: in vivo
[10] = Photo-degradation of compound in DMSO at 1 mM after 2 hrs by LC/MS analysis; assay type: physicochemical; conditions: read-out: Activity
[11] = Cmax in rat at 50 mg/kg, po; assay type: ADME, organism-based; design: dose 50 mg/kg, route oral; conditions: in vivo
[12] = Apparent permeability across human Caco2 cell membrane; assay type: ADME, cell-based; conditions: Caco-2
[13] = Lipophilicity, log D of the compound at pH 7.2; assay type: physicochemical; conditions: buffer
[14] = Half life in rat at 10 mg/kg, iv; assay type: ADME, organism-based; design: dose 10 mg/kg, route intravenous; conditions: in vivo
[15] = target: T1, Glutamine--fructose-6-phosphate aminotransferase [isomerizing] 1; test: Competitive inhibition of GFAT in presence of glutamine
Mus musculus [16] = test: Antidiabetic activity in […] ob/ob mouse assessed decrease of glucose AUC at 50 mg/kg, po at 4 hr and 1 hr prior to oral glucose challenge by oral glucose tolerance test relative to control; assay type: functional; design: scale not given: the % may be the effect or the level left
[17] = target: T1, Glutamine--fructose-6-phosphate aminotransferase [isomerizing] 1; test: Noncompetitive inhibition of GFAT in presence of fructose-6-phosphate
Mus musculus [18] = test: Antidiabetic activity in fasted ob/ob mouse assessed as deduction of glucose excursion at 50 mg/kg, po at 4 hr and 1 hr prior to oral glucose challenge by oral glucose tolerance test; assay type: functional, organism-based; design: dose 50 mg/kg
[19] = AUC in rat at 50 mg/kg, po; assay type: ADME, organism-based; design: dose 50 mg/kg, route oral; conditions: plasma
[20] = Oral bioavailability in rat at 50 mg/kg; assay type: ADME, organism-based; conditions: in vivo
[21] = Clearance in rat at 10 mg/kg, iv; assay type: ADME, organism-based; design: dose 10 mg/kg, route intravenous; conditions: in vivo
[22] = Photo-degradation of compound in DMSO exposed to daylight at 1 mM after 24 hrs by HPLC analysis; assay type: physicochemical; conditions: 1000 µM
[23] = Solubility of the compound at pH 6.4; assay type: physicochemical; conditions: buffer

CCOc1cccc(C(=O)c2ncc(-c3nn[nH]n3)c3cc(OC)c(OC)cc23)c1
IC50 [1]: 800 nM

CCOc1cccc(C(=O)c2ncc(C(=O)O)c3cc(OC)c(OC)cc23)c1
IC50 [1]: 830 nM

COc1cc2c(CC(=O)O)cnc(C(=O)c3cc(OC(C)C)ccc3F)c2cc1OC
IC50 [1]: 1900 nM

COc1ccc(F)c(C(=O)c2ncc(C(=O)O)c3cc(OC)c(OC)cc23)c1
IC50 [1]: 870 nM
degraded at 2 h, 1000 µM [2]: 25.4%

COc1ccc(C(=O)c2ncc(C(=O)O)c3cc(OC)c(OC)cc23)cc1
IC50 [1]: > 100000 nM

COc1cc2c(C(=O)O)cnc(C(=O)c3c(F)cccc3F)c2cc1OC
inhibition [3]: Active
IC50 [1]: 9930 nM
degraded at 2 h, 1000 µM [2]: 0%

COc1cc2c(C(=O)O)cnc(C(=O)c3cccc(OC(C)C)c3)c2cc1OC
IC50 [1]: 720 nM
degraded at 2 h, 1000 µM [2]: 75.9%

COc1cccc(C(=O)c2ncc(C(=O)O)c3ccccc23)c1
IC50 [1]: > 100000 nM

COc1cccc(C(=O)c2ncc(C(=O)O)c3cc(OC)c(OC)cc23)c1
IC50 [1]: 1200 nM

COc1ccc(Cc2ncc(C(=O)O)c3cc(OC)c(OC)cc23)cc1OC
IC50 [1]: > 100000 nM

COc1ccc(F)c(C(=O)c2ncc(CNS(=O)(=O)C(F)(F)F)c3cc(OC)c(OC)cc23)c1
IC50 [1]: 680 nM

COc1cc2c(C(=O)O)cnc(C(=O)c3ccccc3)c2cc1OC
IC50 [1]: 10000 nM

COc1cc2c(C(=O)O)cnc(C(=O)c3cc(OC(C)C)ccc3F)c2cc1OC
IC50 [1]: 2500 nM
degraded at 2 h, 1000 µM [2]: 22%

COc1cc2c(Cn3oc(=O)[nH]c3=O)cnc(C(=O)c3cccc(OC(C)C)c3)c2cc1OC
IC50 [1]: 580 nM

COc1cccc(C(=O)c2ncc(C(=O)O)c3ccc(OC)cc23)c1
IC50 [1]: > 100000 nM

COc1cc2c(CNS(=O)(=O)C(F)(F)F)cnc(C(=O)c3c(F)cccc3F)c2cc1OC
IC50 [1]: 4330 nM

COc1cccc(NC(=O)c2ncc(C(=O)O)c3cc(OC)c(OC)cc23)c1
IC50 [1]: > 100000 nM

COc1cccc(C(=O)c2ncc(C(=O)O)c3cc(O)c(OC)cc23)c1
IC50 [1]: > 100000 nM

COc1cc2c(C(=O)O)cnc(C(=O)c3c(F)ccc(OC(C)C)c3F)c2cc1OC
IC50 [1]: 900 nM

COc1ccc(C(=O)c2ncc(C(=O)O)c3cc(OC)c(OC)cc23)cc1OC
IC50 [1]: 20000 nM

COc1cc2c(CNC(C)=O)cnc(C(=O)c3cccc(OC(C)C)c3)c2cc1OC
IC50 [1]: 1100 nM

COc1cc2c(C(=O)O)cnc(C(=O)c3c(F)ccc(OC)c3F)c2cc1OC
IC50 [1]: 940 nM

N[C@@H](CNC(=O)CBr)C(=O)O
IC50 [4]: 150 nM

COc1cccc(C(=O)c2ncc(C(=O)O)c3cc(OC)ccc23)c1
IC50 [1]: > 100000 nM

COC(=O)/C=C/C(=O)NC[C@H](N)C(=O)O
IC50 [4]: 400 nM

COc1cc2c(CN3C(=O)CSC3=O)cnc(C(=O)c3cccc(OC(C)C)c3)c2cc1OC
IC50 [1]: 820 nM

COc1cc2c(CNS(C)(=O)=O)cnc(C(=O)c3cccc(OC(C)C)c3)c2cc1OC
IC50 [1]: 900 nM

COc1cc2ccnc3c2c(c1OC)NC=C3 [AAPTAMINE]
IC50 [5]: 120000 nM

COc1cccc(C(O)c2ncc(C(=O)O)c3cc(OC)c(OC)cc23)c1 (centres undefined)
IC50 [1]: > 100000 nM

COc1cc2c(CNS(=O)(=O)C(F)(F)F)cnc(C(=O)c3cccc(OC(C)C)c3)c2cc1OC
Tmax [6]: 1 h
Stability [7]: Stable
AUC [8]: 52.3 µg·h/mL
Vd [9]: 0.4 L/kg
inhibition [3]: Active
IC50 [1]: 1000 nM
degraded at 2 h, 1000 µM [10]: 30%
Cmax [11]: 112 µM
Papp [12]: 35.7 ×10⁻⁶ cm/s
logD [13]: 2.89
half-life [14]: 1.68 h
Ki [15]: 300 nM
Activity (Mus musculus [16]): >35%
Ki [17]: 300 nM
Activity (Mus musculus [18]): Active
AUC [19]: 239 µg·h/mL
bioavailability [20]: 91%
clearance [21]: 3.2 mL/min/kg
Stability [22]: Stable
solubility [23]: 3 µg/mL (≈ 5.85 µM)
